Patent publication US20120087985A1, “SMALL PEPTIDE SEQUENCES FOR STABILIZING BIOMOLECULES” (Biodel Inc., priority 2010, published 2012)

What was measured:
Glucose oxidase = Glucose oxidase (Aspergillus niger, UniProt P13006); assay: Stabilization and precipitation of glucose oxidase by SPS; assay type: physicochemical
Glucagon = Glucagon (Homo sapiens, UniProt P01275); assay: Entrapment and precipitation of glucagon in SPS particles; assay type: physicochemical
From the text: Synthesis of SPS and Precipitation of Glucagon
These sequences are soluble at very low pH and form microparticles that trap peptides in solution within the particles. They remain intact at pH 3-5 in the vicinity of their isoelectric point. Solubility increases in the physiological pH range.

[1] = pH of the solution brought to neutral

Glucagon, sequence (P01275 53-81 limits assumed, species assumed): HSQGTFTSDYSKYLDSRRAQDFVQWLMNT
Glucose oxidase, sequence (P13006 17-605, species assumed): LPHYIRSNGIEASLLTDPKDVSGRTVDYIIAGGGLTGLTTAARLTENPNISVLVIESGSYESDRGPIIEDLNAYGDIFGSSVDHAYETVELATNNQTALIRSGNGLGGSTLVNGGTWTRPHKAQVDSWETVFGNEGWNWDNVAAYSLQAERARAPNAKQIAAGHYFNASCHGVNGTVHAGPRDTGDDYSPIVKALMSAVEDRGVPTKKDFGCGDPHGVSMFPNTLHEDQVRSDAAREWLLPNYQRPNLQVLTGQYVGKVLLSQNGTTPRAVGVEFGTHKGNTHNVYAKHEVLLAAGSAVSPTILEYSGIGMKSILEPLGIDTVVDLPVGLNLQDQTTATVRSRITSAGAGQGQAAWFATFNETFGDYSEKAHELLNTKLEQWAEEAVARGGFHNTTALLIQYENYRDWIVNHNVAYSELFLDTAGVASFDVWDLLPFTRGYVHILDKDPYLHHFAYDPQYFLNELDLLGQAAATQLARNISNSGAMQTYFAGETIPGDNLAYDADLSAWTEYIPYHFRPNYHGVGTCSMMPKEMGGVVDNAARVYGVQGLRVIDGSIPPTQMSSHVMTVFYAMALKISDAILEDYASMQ

H-Aspartic Acid-Tryptophan-Aspartic Acid —OH
stabilization and precipitation of glucose oxidase (Glucose oxidase; in aqueous solution, stored along with insulin glargine at a pH of 4): stabilized and precipitated | release of glucose oxidase (Glucose oxidase; [1]): released intact | glucagon remained in the particles (entrapment efficiency) (Glucagon; glucagon entrapped in SPS particles): more than 60% | stabilization of glucagon (Glucagon; in aqueous solution): stabilized it in aqueous solution | release of glucagon (Glucagon; [1]): released the glucagon intact
